# Assays:
# [1] = tested on: ALOMY; experiment: Pre-emergence action against ALOMY, 1280 g/ha; type: in vivo, Alopecurus myosuroides; conditions: visual scoring after about 3 weeks vs untreated controls, 100% = plants have died, 0% = like control plants
# How it was run: (§1)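 Pre-emergence pot test: seeds in sandy loam, soil-covered, sprayed on soil surface (WP/EC, 0.5% additive, 600 L/ha water); greenhouse ~3 wk; visual % effect vs untreated, 0–100%.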
# [2] = tested on: DIGSA; experiment: Pre-emergence action against DIGSA, 1280 g/ha; type: in vivo, Digitaria sanguinalis; conditions: visual scoring after about 3 weeks vs untreated controls, 100% = plants have died, 0% = like control plants
# How it was run: as §1
# [3] = tested on: ECHCG; experiment: Pre-emergence action against ECHCG, 1280 g/ha; type: in vivo, Echinochloa crus-galli; conditions: visual scoring after about 3 weeks vs untreated controls, 100% = plants have died, 0% = like control plants
# How it was run: as §1
# [4] = tested on: LOLRI; experiment: Pre-emergence action against LOLRI, 1280 g/ha; type: in vivo, Lolium rigidum; conditions: visual scoring after about 3 weeks vs untreated controls, 100% = plants have died, 0% = like control plants
# How it was run: as §1
# [5] = tested on: POAAN; experiment: Pre-emergence action against POAAN, 1280 g/ha; type: in vivo, Poa annua; conditions: visual scoring after about 3 weeks vs untreated controls, 100% = plants have died, 0% = like control plants
# How it was run: as §1
# [6] = tested on: SETVI; experiment: Pre-emergence action against SETVI, 1280 g/ha; type: in vivo, Setaria viridis; conditions: visual scoring after about 3 weeks vs untreated controls, 100% = plants have died, 0% = like control plants
# How it was run: as §1
# [7] = tested on: ABUTH; experiment: Pre-emergence action against ABUTH, 1280 g/ha; type: in vivo, Abutilon theophrasti; conditions: scored visually after about 3 weeks vs untreated controls (100% = plants have died)
# How it was run: as §1
# [8] = tested on: AMARE; experiment: Pre-emergence action against AMARE, 1280 g/ha; type: in vivo, Amaranthus retroflexus; conditions: scored visually after about 3 weeks vs untreated controls (100% = plants have died)
# How it was run: as §1
# [9] = tested on: KCHSC; experiment: Pre-emergence action against KCHSC, 1280 g/ha; type: in vivo, Bassia scoparia; conditions: scored visually after about 3 weeks vs untreated controls (100% = plants have died)
# How it was run: as §1
# [10] = tested on: MATIN; experiment: Pre-emergence action against MATIN, 1280 g/ha; type: in vivo, Tripleurospermum inodorum (Matricaria inodora); conditions: scored visually after about 3 weeks vs untreated controls (100% = plants have died)
# How it was run: as §1
# [11] = tested on: STEME; experiment: Pre-emergence action against STEME, 1280 g/ha; type: in vivo, Stellaria media; conditions: scored visually after about 3 weeks vs untreated controls (100% = plants have died)
# How it was run: as §1
# [12] = tested on: VERPE; experiment: Pre-emergence action against VERPE, 1280 g/ha; type: in vivo, Veronica persica; conditions: scored visually after about 3 weeks vs untreated controls (100% = plants have died)
# How it was run: as §1
# [13] = tested on: ALOMY; experiment: Pre-emergence action at 320 g/ha against ALOMY; type: in vivo, Alopecurus myosuroides; conditions: scored visually after about 3 weeks vs untreated controls (100% = plants have died)
# How it was run: (§2)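 Visual % scoring at about 3 weeks post-treatment against untreated pots (0% = like control, 100% = dead), greenhouse-grown. Compounds applied at 320 g/ha as aqueous WP/EC suspension or emulsion plus 0.5% additive, 600 l/ha water, onto covering soil of freshly sown pots before emergence.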
# [14] = tested on: AVEFA; experiment: Pre-emergence action at 320 g/ha against AVEFA; type: in vivo; conditions: visual scoring after about 3 weeks vs untreated controls
# How it was run: as §2
# [15] = tested on: DIGSA; experiment: Pre-emergence action at 320 g/ha against DIGSA; type: in vivo, Digitaria sanguinalis; conditions: visual scoring after about 3 weeks vs untreated controls
# How it was run: as §2
# [16] = tested on: ECHGC; experiment: Pre-emergence action at 320 g/ha against ECHGC; type: in vivo, Echinochloa crus-galli; conditions: visual scoring after about 3 weeks vs untreated controls
# How it was run: as §2
# [17] = tested on: LOLRI; experiment: Pre-emergence action at 320 g/ha against LOLRI; type: in vivo, Lolium rigidum; conditions: visual scoring after about 3 weeks vs untreated controls
# How it was run: as §2
# [18] = tested on: SETVI; experiment: Pre-emergence action at 320 g/ha against SETVI; type: in vivo, Setaria viridis; conditions: visual scoring after about 3 weeks vs untreated controls
# How it was run: as §2
# [19] = tested on: AMARE; experiment: Pre-emergence action at 320 g/ha against AMARE; type: in vivo, Amaranthus retroflexus; conditions: visual scoring after about 3 weeks vs untreated controls
# How it was run: as §2
# [20] = tested on: MATIN; experiment: Pre-emergence action at 320 g/ha against MATIN; type: in vivo, Tripleurospermum inodorum (Matricaria inodora); conditions: visual scoring after about 3 weeks vs untreated controls
# How it was run: as §2
# [21] = tested on: PHBPU; experiment: Pre-emergence action at 320 g/ha against PHBPU; type: in vivo; conditions: visual scoring after about 3 weeks vs untreated controls
# Text: b) Seeds of monocotyledonous and dicotyledonous weed plants and crop plants are placed in plastic or organic planting pots and covered with soil. The compounds of the invention, formulated in the form of wettable powders (WP) or as emulsion concentrates (EC), are then applied onto the surface of the covering soil as aqueous suspension or emulsion with addition of 0.5% additive at a water application rate of 600 l/ha (converted). After the treatment, the pots are placed in a greenhouse and kept under good growth conditions for the trial plants. After about 3 weeks, the effect of the preparations is scored visually in comparison with untreated controls as percentages. For example, 100% activity=the plants have died, 0% activity=like control plants. Tables 13 to 26 below show the effects of selected compounds of the general formula (I) on various harmful plants and at an application rate corresponding to 320 g/ha, which were obtained by the experimental procedure mentioned above.
# [22] = tested on: POLCO; experiment: Pre-emergence action at 320 g/ha against POLCO; type: in vivo, Fallopia convolvulus (Polygonum convolvulus); conditions: visual scoring after about 3 weeks vs untreated controls
# How it was run: as §2
# [23] = tested on: VERPE; experiment: Pre-emergence action at 320 g/ha against VERPE; type: in vivo, Veronica persica; conditions: visual scoring after about 3 weeks vs untreated controls
# How it was run: as §2
# [24] = tested on: VIOTR; experiment: Pre-emergence action at 320 g/ha against VIOTR; type: in vivo, Viola tricolor; conditions: dosage 320 g/ha
# How it was run: as §2
# [25] = tested on: ALOMY; experiment: Post-emergence action against ALOMY, 1.28 kg/ha; type: in vivo, Alopecurus myosuroides; conditions: dosage 1280 g/ha, visual rating about 3 weeks after treatment vs untreated controls
# How it was run: (§3)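 Foliar application at the one-leaf stage: compound as WP or EC in water with 0.5% additive, sprayed at 600 L/ha. Plants are kept about 3 weeks in the greenhouse, then % herbicidal action is estimated visually (100% = death).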
# [26] = tested on: DIGSA; experiment: Post-emergence action against DIGSA, 1.28 kg/ha; type: in vivo, Digitaria sanguinalis; conditions: dosage 1280 g/ha, visual rating about 3 weeks after treatment vs untreated controls
# How it was run: as §3
# [27] = tested on: ECHCG; experiment: Post-emergence action against ECHCG, 1.28 kg/ha; type: in vivo, Echinochloa crus-galli; conditions: dosage 1280 g/ha, visual rating about 3 weeks after treatment vs untreated controls
# How it was run: as §3
# [28] = tested on: LOLRI; experiment: Post-emergence action against LOLRI, 1.28 kg/ha; type: in vivo, Lolium rigidum; conditions: dosage 1280 g/ha, visual rating about 3 weeks after treatment vs untreated controls
# How it was run: as §3
# [29] = tested on: POAAN; experiment: Post-emergence action against POAAN, 1.28 kg/ha; type: in vivo, Poa annua; conditions: dosage 1280 g/ha, visual rating about 3 weeks after treatment vs untreated controls
# How it was run: as §3
# [30] = tested on: SETVI; experiment: Post-emergence action against SETVI, 1.28 kg/ha; type: in vivo, Setaria viridis; conditions: dosage 1280 g/ha, visual rating about 3 weeks after treatment vs untreated controls
# How it was run: as §3
# [31] = tested on: ABUTH; experiment: Post-emergence action against ABUTH, 1.28 kg/ha; type: in vivo, Abutilon theophrasti; conditions: dosage 1280 g/ha, visual rating about 3 weeks after treatment vs untreated controls (100% = plants died)
# How it was run: as §3
# [32] = tested on: AMARE; experiment: Post-emergence action against AMARE, 1.28 kg/ha; type: in vivo, Amaranthus retroflexus; conditions: dosage 1280 g/ha, visual rating about 3 weeks after treatment vs untreated controls (100% = plants died)
# How it was run: as §3
# [33] = tested on: MATIN; experiment: Post-emergence action against MATIN, 1.28 kg/ha; type: in vivo, Tripleurospermum inodorum (Matricaria inodora); conditions: dosage 1280 g/ha, visual rating about 3 weeks after treatment vs untreated controls (100% = plants died)
# How it was run: as §3
# [34] = tested on: STEME; experiment: Post-emergence action against STEME, 1.28 kg/ha; type: in vivo, Stellaria media; conditions: dosage 1280 g/ha, visual rating about 3 weeks after treatment vs untreated controls (100% = plants died)
# How it was run: as §3
# [35] = tested on: VERPE; experiment: Post-emergence action against VERPE, 1.28 kg/ha; type: in vivo, Veronica persica; conditions: dosage 1280 g/ha, visual rating about 3 weeks after treatment vs untreated controls (100% = plants died)
# How it was run: as §3
# [36] = tested on: KCHSC; experiment: Post-emergence action against KCHSC, 1.28 kg/ha; type: in vivo, Bassia scoparia; conditions: dosage 1280 g/ha, visual rating about 3 weeks after treatment vs untreated controls (100% = plants died)
# How it was run: as §3
SMILES,Pre-emergence action against ALOMY [1] [%],Pre-emergence action against DIGSA [2] [%],Pre-emergence action against ECHCG [3] [%],Pre-emergence action against LOLRI [4] [%],Pre-emergence action against POAAN [5] [%],Pre-emergence action against SETVI [6] [%],Pre-emergence action against ABUTH [7] [%],Pre-emergence action against AMARE [8] [%],Pre-emergence action against KCHSC [9] [%],Pre-emergence action against MATIN [10] [%],Pre-emergence action against STEME [11] [%],Pre-emergence action against VERPE [12] [%],Pre-emergence action at 320 g/ha against ALOMY in % [13] [%],Pre-emergence action against AVEFA in % [14] [%],Pre-emergence action against DIGSA in % [15] [%],Pre-emergence action against ECHGC in % [16] [%],Pre-emergence action against LOLRI in % [17] [%],Pre-emergence action against SETVI in % [18] [%],Pre-emergence action against AMARE in % [19] [%],Pre-emergence action against MATIN in % [20] [%],other results
N#CCCOC(=O)COc1nn(-c2ccccc2F)c(-c2ccc(F)nc2)c1Br [VII-110],100,100,100,100,100,100,90,100,90,100,100,100,100,80,100,100,100,100,100,100,Pre-emergence action against PHBPU in % [21]: 90%; Pre-emergence action against POLCO in % [22]: 100%; Pre-emergence action against VERPE in % [23]: 100%; Pre-emergence action against VIOTR in % [24]: 100%; Post-emergence action against ALOMY [25]: 100%; Post-emergence action against DIGSA [26]: 100%; Post-emergence action against ECHCG [27]: 100%; Post-emergence action against LOLRI [28]: 100%; Post-emergence action against POAAN [29]: 100%; Post-emergence action against SETVI [30]: 90%; Post-emergence action against ABUTH [31]: 90%; Post-emergence action against AMARE [32]: 90%; Post-emergence action against MATIN [33]: 100%; Post-emergence action against STEME [34]: 100%; Post-emergence action against VERPE [35]: 100%
CSCCOC(=O)COc1nn(-c2ccccc2F)c(-c2ccc(F)nc2)c1Br [VII-124],100,100,100,100,100,100,90,100,90,100,100,100,100,90,100,100,100,100,100,100,Pre-emergence action against PHBPU in % [21]: 90%; Pre-emergence action against POLCO in % [22]: 100%; Pre-emergence action against VERPE in % [23]: 100%; Pre-emergence action against VIOTR in % [24]: 100%; Post-emergence action against ALOMY [25]: 100%; Post-emergence action against DIGSA [26]: 100%; Post-emergence action against ECHCG [27]: 100%; Post-emergence action against LOLRI [28]: 100%; Post-emergence action against POAAN [29]: 100%; Post-emergence action against SETVI [30]: 90%; Post-emergence action against ABUTH [31]: 90%; Post-emergence action against AMARE [32]: 90%; Post-emergence action against KCHSC [36]: 90%; Post-emergence action against MATIN [33]: 100%; Post-emergence action against STEME [34]: 100%; Post-emergence action against VERPE [35]: 100%
